Measurements published in patent publication US7141546B1, “CRFR2 selective ligands” (priority 2001, dated 2006).
Where two headings read alike, the source gives them in different places. Bridge positions count the residues as written; N and C are the ends. Square brackets hold non-standard residues; d marks the D form. Peptide text beside a SMILES is read from it. αMeL = CC(C)C[C@](C)(N)C(=O)O; Nle = CCCC[C@H](N)C(=O)O

How the values were obtained:
[1] = target: T1, CRFR1 (Homo sapiens, UniProt P34998); test: Competitive displacement binding assay, cloned hCRFR1 expressed in CHO cells
T1 construct: expressed in transfected cells
T1 sequence (P34998 24-415): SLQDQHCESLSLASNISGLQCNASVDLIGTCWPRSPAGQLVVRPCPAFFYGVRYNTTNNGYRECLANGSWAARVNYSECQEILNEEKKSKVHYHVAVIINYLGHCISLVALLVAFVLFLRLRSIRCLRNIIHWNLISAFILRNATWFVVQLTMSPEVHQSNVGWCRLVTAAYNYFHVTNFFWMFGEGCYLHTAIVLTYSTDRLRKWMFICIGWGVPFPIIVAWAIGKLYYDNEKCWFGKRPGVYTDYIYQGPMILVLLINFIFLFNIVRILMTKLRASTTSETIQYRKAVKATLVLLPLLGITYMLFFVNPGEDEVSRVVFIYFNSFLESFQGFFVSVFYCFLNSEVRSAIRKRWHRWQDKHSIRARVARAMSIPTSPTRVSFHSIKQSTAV
From the text: A candidate CRFR2 ligand is also easily evaluated in a binding assay using known CRF receptors, such as that described in Perrin, M., et al., Endocrinology, 118, 1171–1179 (1986). CRF receptors and the details of binding assays are discussed later in this specification. […] One such representative binding assay utilizing CRF-R1 receptor is described in Chen, et al., P.N.A.S., 90, 8967–8971 (October 1993).
(§1) CRF receptors have now been cloned and are disclosed in the aforementioned Chen et al. article, in Perrin, M., et al., P.N.A.S, 92, 2969–2973 (March 1995), and in Lovenberg, T., et al., P.N.A.S., 92, 836–840 (January 1995). Binding affinity is a term used to refer to the strength of interaction between ligand and receptor. […] Ki (inhibitory binding affinity constant) is determined using a “standard” or “tracer” radioactive ligand and thus measures the displacement of the tracer from the receptor or binding protein; it is most properly expressed with reference to such tracer. However, so long as these assays are carefully performed under specific conditions with relatively low concentrations of receptor or the like, the calculated Ki will be substantially the same as its dissociation constant KD. […] It is particularly efficient to test for Ki because only a single tracer need be labelled, e.g. radioiodinated. […] Those reported hereinafter are derived using radioactively labeled [Tyr Glu^1, Nle^17]-Svg as a radioligand.
(§2) Binding assays with cells expressing human CRFR1 are carried out as described in the Chen et al. P.N.A.S., supra. The affinities of test peptides for CRFR1 and CRFR2b stably expressed in CHO cells were determined by competitive displacement of ^125I-(Nle^21, Tyr^32) ovine CRF (for CRFR1) or of [^125I-Tyr^o-]Ucn (for CRFR2b) as described.

[2] = target: T1, CRFR1; test: cAMP accumulation in CHO cells stably transfected with CRFR1 and treated with CRF; format: cell-based
From the text: (§3) In addition to inhibiting CRF receptor binding, a candidate's CRF receptor antagonist activity may be established by the ability of the compound to antagonize an activity associated with CRF. For example, CRF is known to stimulate various biochemical processes, including adenylate cyclase activity. Therefore, compounds may be evaluated as CRF antagonists by their ability to antagonize CRF-stimulated adenylate cyclase activity by, for example, measuring cAMP levels. The inhibition of CRF-stimulated adenylate cyclase activity, determined by the assay described by G. Battaglia et al., Synapse 1:572 (1987), provides an assay for determining a compound's ability to antagonize CRF activity. Accordingly, CRF receptor antagonist activity may be determined by assay techniques which generally include an initial binding assay followed by such a cAMP screening protocol.
as §2

[3] = target: T2, human CRFR2b (Homo sapiens, UniProt Q13324); test: Competitive displacement binding assay, stably transfected CHO cells expressing human CRFR2b; conditions: for binding selectivity, CRFR2 versus CRFR1: in words, binding to CRFR2 compared with CRFR1
T2 construct: expressed in transfected cells
T2 sequence (Q13324 1-438 isoform Q13324-2): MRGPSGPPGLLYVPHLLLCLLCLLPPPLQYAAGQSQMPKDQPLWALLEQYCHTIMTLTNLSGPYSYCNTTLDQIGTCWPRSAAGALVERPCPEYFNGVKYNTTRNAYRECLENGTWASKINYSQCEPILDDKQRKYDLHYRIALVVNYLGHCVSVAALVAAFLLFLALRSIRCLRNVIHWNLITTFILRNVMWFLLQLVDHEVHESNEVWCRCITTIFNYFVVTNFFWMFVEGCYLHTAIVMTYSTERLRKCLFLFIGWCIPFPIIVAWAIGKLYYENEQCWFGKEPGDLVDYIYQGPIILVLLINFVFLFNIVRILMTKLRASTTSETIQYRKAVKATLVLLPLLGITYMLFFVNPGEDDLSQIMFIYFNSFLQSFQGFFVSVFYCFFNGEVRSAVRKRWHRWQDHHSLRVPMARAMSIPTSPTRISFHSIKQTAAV
Experimental: as §1, §2

[4] = target: T3, CRFR2 (Homo sapiens, UniProt Q13324); test: cAMP accumulation in CHO cells stably transfected with CRFR2 and treated with CRF; format: cell-based; conditions: for antagonism of CRF activity with respect to CRFR2 (cAMP accumulation): CHO cells stably transfected with CRFR2, treated with CRF
T3 construct: expressed in transfected cells
T3 sequence (Q13324 1-438 isoform Q13324-2): T2 sequence (Q13324 1-438 isoform Q13324-2)
From the text: as §3, with “protocol. […]” for “protocol.”

Molecule	antagonism of CRF activity with respect to CRFR1 (cAMP accumulation) [2]	antagonism of CRF activity with respect to CRFR2 (cAMP accumulation) [4]	binding selectivity, CRFR2 versus CRFR1 [3]	also measured
CCCC[C@H](NC(=O)[C@H](CCCCN)NC(=O)[C@H](CCCNC(=N)N)NC(=O)[C@H](CC(C)C)NC(=O)[C@](C)(CC(C)C)NC(=O)[C@H](Cc1c[nH]cn1)NC(=O)[C@@H](Cc1ccccc1)NC(=O)[C@H](CO)NC(=O)[C@H](CC(C)C)NC(=O)[C@H](CC(=O)O)NC(C)=O)C(=O)N[C@H](C(=O)N[C@@H](CCC(=O)O)C(=O)N[C@H](C(=O)N[C@@H](CCC(=O)O)C(=O)N[C@@H](CCCCN)C(=O)N[C@@H](CCC(N)=O)C(=O)N[C@@H](CCC(=O)O)C(=O)N[C@@H](CCCCN)C(=O)N[C@@H](CCC(=O)O)C(=O)N[C@@H](CCCCN)C(=O)N[C@@H](CCC(N)=O)C(=O)N[C@@H](CCC(N)=O)C(=O)N[C@@H](C)C(=O)N[C@H]1CCC(=O)NCCCC[C@@H](C(=O)N[C@@H](CC(C)C)C(=O)N[C@@H](CC(C)C)C(=O)N[C@@H](CC(C)C)C(=O)N[C@@H](CC(=O)O)C(=O)N[C@@](C)(CC(C)C)C(=O)N[C@H](C(N)=O)[C@@H](C)CC)NC(=O)[C@H](CC(N)=O)NC(=O)[C@H](CC(N)=O)NC1=O)[C@@H](C)CC)[C@@H](C)CC [Example 2 cyclic peptide, (cyclo 31–34)[Ac-D-Phe^11, His^12, CML^13,39, Nle^17, Glu^31, Lys^34]-sauvagine(8–40)]	little or no effect	effectively antagonize CRF activity		IC50 [1]: > 500 nM; Ki [1]: ~543 nM; IC50 [3]: 1.3 nM
CCCC[C@H](NC(=O)[C@H](CCC(=O)O)NC(=O)[C@H](CC(C)C)NC(=O)[C@@H](NC(=O)[C@H](CCC(=O)O)NC(=O)[C@H](CCCNC(=N)N)NC(=O)[C@H](CC(C)C)NC(=O)[C@](C)(CC(C)C)NC(=O)[C@H](Cc1c[nH]cn1)NC(=O)[C@H](N)Cc1ccccc1)C(C)C)C(=O)N[C@@H](C)C(=O)N[C@@H](CCCNC(=N)N)C(=O)N[C@@H](C)C(=O)N[C@@H](CCC(=O)O)C(=O)N[C@@H](CCC(N)=O)C(=O)N[C@@H](CC(C)C)C(=O)N[C@@H](C)C(=O)N[C@@H](CCC(N)=O)C(=O)N[C@@H](CCC(N)=O)C(=O)N[C@@H](C)C(=O)N[C@H]1CCC(=O)NCCCC[C@@H](C(=O)N[C@@H](CCCCN)C(=O)N[C@@H](CC(C)C)C(=O)N[C@@H](CCCC)C(=O)N[C@@H](CCC(=O)O)C(=O)N[C@@](C)(CC(C)C)C(=O)N[C@H](C(N)=O)[C@@H](C)CC)NC(=O)[C@H](CC(N)=O)NC(=O)[C@H](CO)NC1=O [Example 9B, (cyclo 32–35) [D-Phe^12, CML^14,40, Nle^21,38, Glu^32, Lys^35]-r/hCRF(12–41)] (H-[dF]H[αMeL]LREVLE[Nle]ARAEQLAQQAESNKKL[Nle]E[αMeL]I-NH2; lactam 21-24)				IC50 ([1]; read-out: affinity of cloned hCRFR1 for the peptide (competitive displacement of bound radioligand)): > 100 nM
(cyclo 31–34) [Ac-Asp^8,D-Phe^11,Lys^34]-Ucn(8–40) [Example 10C]	little or no effect	effectively antagonize CRF activity	very good selectivity	selectivity as Ucn antagonist ([4]; in words, compared with the parent Ucn analog): does not significantly alter its selectivity
(cyclo 31–34) [D-Tyr^11, Lys^34], -Ucn(11–40) [Example 10]	little or no effect	effectively antagonize CRF activity	very good selectivity	
(cyclo 31–34)[Ac-D-2Nal^11, His^12, CML^13,39, Nle^17, Glu^31, Lys^34]-sauvagine(11–40) [Example 6]		effectively antagonize CRF activity		
(cyclo 31–34)[Ac-D-3 Pal^11, His^12, CML^13,39, Nle^17, Glu^31, Lys^34]-sauvagine(11–40) [Example 7]		effectively antagonize CRF activity		
(cyclo 31–34)[Ac-D-Cpa^11, His^12, CML^13,39, Nle^17, Glu^31, Lys^34]-sauvagine(11–40) [Example 5]		effectively antagonize CRF activity		
(cyclo 31–34)[Ac-D-Leu^11, His^12, CML^13,39, Nle^17, Glu^31 Lys^34]-sauvagine(8–40) [Example 3]		effectively antagonize CRF activity		
(cyclo 31–34)[Ac-D-Phe^11, His^12, CML^13,39, Nle^17, Glu^31, Orn^34]-sauvagine(11–40) [Example 8]		effectively antagonize CRF activity		
(cyclo 31–34)[Ac-D-Tyr^11, His^12, CML^13,39, Nle^17, Glu^31, Lys^34]-sauvagine(11–40) [Example 4]		effectively antagonize CRF activity		
(cyclo 31–34)[D-Phe^11, Lys^34]-Ucn(11–40) [Example 10A]	little or no effect	effectively antagonize CRF activity	very good selectivity	
[Ac-Asp^8,D-Phe^11,CML^13,39, Lys^34]-Ucn(8–40) [Example 10D]	little or no effect	effectively antagonize CRF activity	very good selectivity	
[D-Phe^11, Gln^31,Lys(Ac)^34]-Ucn(11–40) [Example 10B]	little or no effect	effectively antagonize CRF activity	very good selectivity	
